Values quoted from earlier work, collected in publication PMC6442678 (Journal of medicinal chemistry, 2018).

Settings: mice, 24h after injection ref 52

Mn-EDTA-BTA
injected Mn retained: > 50%
